Results reported in patent US5247079A, “7-cyclopropyl-imidazodiazepines” (Roussel Uclaf, priority 1990, dated 1993).

Key:
benzodiazepine receptors [1] = assay: Affinity for benzodiazepine receptors, displacement of ^3 H-labelled flunitrazepam in membranes from the rear portion of the brain in rats (Test 1); conditions: 0.6×10^-9 mol of ^3 H-labelled flunitrazepam; membranes from the rear portion of rat brain; read-out: Test 1: concentration which inhibited 50% of the specific binding of ^3 H-labelled flunitrazepam (IC50)
Procedure: The affinity of the active ingredients for the benzodiazepine receptors was measured using a radioactively labelled (^3 H) compound flunitrazepam,and a modified version of the method of Squires and Braestrup (Nature, 1977, Vol. 266, p. 732). The values given in Table 2 below are the concentration (mol×10^-9) of the compound under test which inhibited 50% of the specific binding of 0.6×10^-9 mol of ^3 H-labelled flunitrazepam in preparations of membranes from the rear portion of the brain in rats (IC50 values).

benzodiazepine receptors [2] = assay: in vivo binding to benzodiazepine receptors, Goeders et al (Test 2); conditions: IP
Procedure: Measuring of in vivo binding to benzodiazepine receptors was carried out according to the method described by Goeders et al, Life Sciences (1985), Vol. 37, p. 345.

Row | SMILES | IC50 (benzodiazepine receptors [1]) [nM] | Test 2 ED50 (benzodiazepine receptors [2]) [mg/kg]
1 | CN1Cc2c(C(=O)C3CC3)ncn2-c2cccc(C3CC3)c2C1=O [Example 1, 7-cyclopropyl-5,6-dihydro-5-methyl-6-oxo-4H-imidazo-[1,5-a][1,4]-benzodiazepin-3-yl cyclopropyl methanone] | 36 | 0.15
2 | CN1Cc2c(C(=O)C3CC3)ncn2-c2ccnc(C3CC3)c2C1=O [Example 2, 7-cyclopropyl-5,6-dihydro-5-methyl-6-oxo-4H-imidazo-[1,5-a]-pyrido [3,4-f]diazepin-3-yl cyclopropyl methanone] | 26 | 0.08
3 | CN1Cc2c(C(=O)C3CC3)ncn2-c2ccncc2C1=O [Example 3, 5,6-dihydro-5-methyl-6-oxo-4H-imidazo [1,5-a]-pyrido-[3,4-f][1,4]-diazepin-3-yl cyclopropylmethanone] | 105 | 0.13
